Laboratory results from patent publication US4879311A, “Derivatives of benzoyloxyacetic acid, and preparation and formulations thereof for therapeutic use” (Inverni della Beffa S.p.A., priority 1987, dated 1989).
Counter-ions that a name gives are not always drawn.

Assay: pH of aqueous solution
Type: physicochemical
Details: 1% aqueous solution

Cc1ccc(Cl)c(Nc2ccccc2C(=O)OCC(=O)O)c1Cl [Ic, d,l-lysine salt (Ic) of 2-[(2,6-dichloro-3-methylphenyl)-amino]benzoyloxyacetic acid]
pH in 1% aqueous solution: 6.75
